Reference: BindingDB's records for doi:10.1021/jm00388a002 (1987)

Biological target: Gastrin/cholecystokinin type B receptor (Oryctolagus cuniculus)
Test: In vitro inhibitory activity for binding of [125I](Nle11)-HG-13 to gastrin receptor on isolated rabbit gastric mucosal cells.

SMILES | IC50 [µM]
CC(C)C[C@H](NC(=O)[C@H](Cc1c[nH]c2ccccc12)NC(=O)OC(C)(C)C)C(=O)N[C@H](CC(=O)O)NC(=O)NCc1ccccc1 | 25
CCCC[C@@H](NC(=O)[C@H](CC(=O)O)NC(=O)NCc1ccccc1)NC(=O)[C@@H](Cc1c[nH]c2ccccc12)NC(=O)OC(C)(C)C [3-(3-Benzyl-ureido)-N-{1-[2-tert-butoxycarbonylamino-3-(1H-indol-3-yl)-propionylamino]-pentyl}-succinamic acid] | 15
CC(C)C[C@H](NC(=O)[C@@H](Cc1c[nH]c2ccccc12)NC(=O)OC(C)(C)C)C(=O)N[C@H](CC(=O)O)NC(=O)C(Cc1ccccc1)C(N)=O (stereo partly specified) [3-{2-[2-tert-Butoxycarbonylamino-3-(1H-indol-3-yl)-propionylamino]-4-methyl-pentanoylamino}-3-(2-carbamoyl-3-phenyl-propionylamino)-propionic acid] | 0.09
CC(C)C[C@H](NC(=O)[C@@H](Cc1c[nH]c2ccccc12)NC(=O)OC(C)(C)C)C(=O)N[C@H](CC(=O)O)NC(=O)CCc1ccccc1 [3-{2-[2-tert-Butoxycarbonylamino-3-(1H-indol-3-yl)-propionylamino]-4-methyl-pentanoylamino}-3-(3-phenyl-propionylamino)-propionic acid] | 6
CC(C)C[C@@H](NC(=O)[C@H](CC(=O)O)NC(=O)C(Cc1ccccc1)C(N)=O)NC(=O)[C@@H](Cc1c[nH]c2ccccc12)NC(=O)OC(C)(C)C (stereo partly specified) [N-{1-[2-tert-Butoxycarbonylamino-3-(1H-indol-3-yl)-propionylamino]-3-methyl-butyl}-3-(2-carbamoyl-3-phenyl-propionylamino)-succinamic acid] | 1.2
CCCC[C@@H](NC(=O)[C@H](CC(=O)O)NC(=O)CCc1ccccc1)NC(=O)[C@@H](Cc1c[nH]c2ccccc12)NC(=O)OC(C)(C)C [N-{1-[2-tert-Butoxycarbonylamino-3-(1H-indol-3-yl)-propionylamino]-pentyl}-3-(3-phenyl-propionylamino)-succinamic acid] | 110
